{"source": "paper PMC4132841", "about": "(Neuron, 2012)", "key": {"[1]": {"biological_target": "GluK2b(Q) and GluK3 (Rattus norvegicus, UniProt P42264)", "sequence (P42264 32-919)": "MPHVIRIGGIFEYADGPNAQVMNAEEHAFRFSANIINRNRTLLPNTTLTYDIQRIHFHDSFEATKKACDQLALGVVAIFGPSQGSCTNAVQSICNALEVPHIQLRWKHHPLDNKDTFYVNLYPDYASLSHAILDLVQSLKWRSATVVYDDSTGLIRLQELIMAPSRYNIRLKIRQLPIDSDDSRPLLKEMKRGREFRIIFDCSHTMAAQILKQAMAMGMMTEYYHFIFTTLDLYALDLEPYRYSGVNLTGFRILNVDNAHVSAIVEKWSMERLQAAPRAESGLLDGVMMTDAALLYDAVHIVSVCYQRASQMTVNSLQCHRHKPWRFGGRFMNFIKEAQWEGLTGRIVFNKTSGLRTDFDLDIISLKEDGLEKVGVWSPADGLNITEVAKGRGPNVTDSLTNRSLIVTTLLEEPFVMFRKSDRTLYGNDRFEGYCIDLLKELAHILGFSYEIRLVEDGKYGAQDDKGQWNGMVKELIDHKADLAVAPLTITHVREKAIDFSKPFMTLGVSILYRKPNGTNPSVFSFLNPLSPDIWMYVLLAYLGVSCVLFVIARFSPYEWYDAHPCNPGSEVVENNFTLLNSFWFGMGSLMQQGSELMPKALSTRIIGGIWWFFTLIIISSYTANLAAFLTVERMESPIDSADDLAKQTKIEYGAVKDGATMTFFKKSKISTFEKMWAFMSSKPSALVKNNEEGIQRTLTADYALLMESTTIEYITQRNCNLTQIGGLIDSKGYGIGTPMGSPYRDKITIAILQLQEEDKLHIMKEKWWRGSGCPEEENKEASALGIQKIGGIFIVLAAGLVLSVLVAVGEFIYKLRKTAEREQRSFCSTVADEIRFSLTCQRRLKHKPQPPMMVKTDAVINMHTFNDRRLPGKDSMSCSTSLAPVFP", "experiment": "Glutamate-activated currents in HEK293 cells cotransfected with GluK2b", "format": "cell-based", "conditions": "1 μM UBP310; n = 6"}, "[2]": {"biological_target": "T1, GluK3 (Rattus norvegicus, UniProt P42264)", "T1 sequence (P42264 32-919)": "as above", "format": "cell-based", "conditions": "for effect of zinc on GluK3 currents: 100 μM zinc"}, "[3]": {"biological_target": "T2, GluK2 (Rattus norvegicus, UniProt P42260)", "format": "cell-based", "conditions": "10 mM glutamate"}, "[4]": {"biological_target": "heteromeric GluK2/GluK3 receptors (Rattus norvegicus, UniProt P42260+P42264)", "experiment": "Glutamate currents of heteromeric GluK2b", "format": "cell-based"}, "[5]": {"biological_target": "T1, GluK3", "format": "cell-based"}, "[6]": {"biological_target": "T2, GluK2", "format": "cell-based", "conditions": "100 μM zinc; control 3.4 ± 0.1 ms; n = 5; p = 0.20"}, "[7]": {"biological_target": "GluK3(ERLK) (Rattus norvegicus, UniProt P42264, I781L/K527E/K698R/Q785K)", "sequence (P42264 32-919 K527E/K698R/I781L/Q785K)": "as the sequence (P42264 32-919) above, with K496E, K667R, I750L, Q754K counted along it", "experiment": "Glutamate currents of desensitization mutant GluK3", "format": "cell-based", "conditions": "100 μM zinc"}, "[8]": {"biological_target": "GluK3(H492C, L753C) (Rattus norvegicus, UniProt P42264, H523C/L784C)", "sequence (P42264 32-919 H523C/L784C)": "as the sequence (P42264 32-919) above, with H492C, L753C counted along it", "experiment": "Glutamate currents of desensitization mutant GluK3", "format": "cell-based", "conditions": "100 μM zinc; 10 mM glutamate, 100 ms"}, "[9]": {"test_system": "extracellular domain of GluK3 and the transmembrane and intracellular segments of GluK2", "experiment": "Whole-cell glutamate currents of chimeric receptor", "format": "cell-based, rat", "conditions": "100 μM zinc; 10 mM glutamate, 100 ms; n = 5"}, "[10]": {"test_system": "transmembrane and intracellular segments of GluK3 and the extracellular domain of GluK2", "experiment": "Whole-cell glutamate currents of chimeric receptor", "format": "cell-based, rat", "conditions": "100 μM zinc; 10 mM glutamate, 100 ms; n = 4"}, "[11]": {"biological_target": "GluK3 subunits deleted of their ATD (Rattus norvegicus, UniProt P42264)", "sequence (P42264 376-919, stated change not applied)": "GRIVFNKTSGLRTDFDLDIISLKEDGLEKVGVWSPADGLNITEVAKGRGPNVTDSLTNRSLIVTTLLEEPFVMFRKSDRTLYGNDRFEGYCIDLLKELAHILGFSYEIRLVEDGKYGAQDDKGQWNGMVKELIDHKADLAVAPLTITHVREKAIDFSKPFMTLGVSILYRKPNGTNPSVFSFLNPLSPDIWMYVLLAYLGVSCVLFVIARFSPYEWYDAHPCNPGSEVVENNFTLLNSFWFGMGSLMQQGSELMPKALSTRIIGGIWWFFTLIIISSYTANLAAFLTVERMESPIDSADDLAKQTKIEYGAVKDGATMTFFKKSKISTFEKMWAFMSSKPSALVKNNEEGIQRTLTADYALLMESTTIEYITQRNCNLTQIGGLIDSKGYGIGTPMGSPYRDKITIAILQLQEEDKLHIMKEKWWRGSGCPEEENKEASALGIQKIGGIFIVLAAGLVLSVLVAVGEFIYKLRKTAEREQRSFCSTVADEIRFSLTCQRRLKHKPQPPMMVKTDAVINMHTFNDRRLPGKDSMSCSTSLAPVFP", "experiment": "Whole-cell glutamate currents of ATD-deleted receptor", "format": "cell-based", "conditions": "100 μM zinc; 10 mM glutamate, 100 ms; n = 5"}, "[12]": {"biological_target": "GluK2 receptors where the ATD was excised (Rattus norvegicus, UniProt P42260)", "experiment": "Whole-cell glutamate currents of ATD-deleted receptor", "format": "cell-based", "conditions": "100 μM zinc; 10 mM glutamate, 100 ms; n = 4"}, "[13]": {"biological_target": "GluK3/K2S2 (Rattus norvegicus, UniProt P42260+P42264, A594P/A717V/A732S/D593N/D790G/E602D/E705D/F704Y/G600D/I638V/I746V/I767V/I794M/I818V/I844L/INS713R/K688E/K714R/K820N/L736F/L837F/M618V/N721S/N810S/P715Q/S620A/S803N/T729V/V569I/Y745F)", "experiment": "Whole-cell glutamate currents of S2 chimera", "format": "cell-based", "conditions": "100 μM zinc; 10 mM glutamate, 100 ms; n = 5"}, "[14]": {"test_system": "GluK2/K3S2", "experiment": "Whole-cell glutamate currents of S2 chimera", "format": "cell-based, rat", "conditions": "100 μM zinc; 10 mM glutamate, 100 ms; n = 5"}, "[15]": {"biological_target": "GluK2(G758D) (Rattus norvegicus, UniProt P42260, G789D)", "experiment": "Glutamate currents of point mutant, outside-out patches", "format": "cell-based", "conditions": "100 μM zinc; 10 mM glutamate; n = 6"}, "[16]": {"biological_target": "GluK3(D759G) (Rattus norvegicus, UniProt P42264, D790G)", "sequence (P42264 32-919 D790G)": "as the sequence (P42264 32-919) above, with D759G counted along it", "experiment": "Glutamate currents of point mutant, outside-out patches", "format": "cell-based", "conditions": "100 μM zinc; 10 mM glutamate; n = 5"}, "[17]": {"biological_target": "GluK3(H762A) (Rattus norvegicus, UniProt P42264, H793A)", "sequence (P42264 32-919 H793A)": "as the sequence (P42264 32-919) above, with H762A counted along it", "experiment": "Glutamate currents of point mutant, outside-out patches", "format": "cell-based", "conditions": "100 μM zinc; 10 mM glutamate; n = 5"}, "[18]": {"biological_target": "GluK3(H492Y) (Rattus norvegicus, UniProt P42264, H523Y)", "sequence (P42264 32-919 H523Y)": "as the sequence (P42264 32-919) above, with H492Y counted along it", "experiment": "Glutamate currents of point mutant", "format": "cell-based", "conditions": "100 μM zinc; 10 mM glutamate"}, "[19]": {"biological_target": "GluK3(H492A) (Rattus norvegicus, UniProt P42264, H523A)", "sequence (P42264 32-919 H523A)": "as the sequence (P42264 32-919) above, with H492A counted along it", "experiment": "Glutamate currents of point mutant", "format": "cell-based", "conditions": "100 μM zinc; 10 mM glutamate"}, "[20]": {"biological_target": "GluK2(Y490H) (Rattus norvegicus, UniProt P42260, Y521H)", "experiment": "Glutamate currents of point mutant", "format": "cell-based", "conditions": "100 μM zinc; 10 mM glutamate"}, "[21]": {"biological_target": "GluK3(D730A) (Rattus norvegicus, UniProt P42264, D761A)", "sequence (P42264 32-919 D761A)": "as the sequence (P42264 32-919) above, with D730A counted along it", "experiment": "Glutamate currents of point mutant, outside-out patches", "format": "cell-based", "conditions": "100 μM zinc; 10 mM glutamate; n = 6"}, "[22]": {"biological_target": "GluK3(D730N) (Rattus norvegicus, UniProt P42264, D761N)", "sequence (P42264 32-919 D761N)": "as the sequence (P42264 32-919) above, with D730N counted along it", "experiment": "Glutamate currents of point mutant, outside-out patches", "format": "cell-based", "conditions": "100 μM zinc; 10 mM glutamate"}, "[23]": {"biological_target": "GluK2b and GluK3(D730A) (Rattus norvegicus, UniProt P42260+P42264, D761A)", "experiment": "Glutamate currents of heteromeric mutant receptors, 1 μM UBP310 present", "format": "cell-based", "conditions": "100 μM zinc, 10 mM glutamate"}, "[24]": {"biological_target": "GluK2b(D729A) and GluK3 (Rattus norvegicus, UniProt P42260+P42264, D760A)", "experiment": "Glutamate currents of heteromeric mutant receptors", "format": "cell-based", "conditions": "10 mM glutamate"}, "[25]": {"test_system": "KARs containing GluK4 or GluK5 subunits", "conditions": "read-out: IC50 of zinc inhibition; ref Mott et al., 2008; cited from earlier work"}, "[26]": {"test_system": "GluK1-GluK2", "conditions": "read-out: IC50 of zinc inhibition; ref Mott et al., 2008; cited from earlier work"}, "[27]": {"test_system": "GluN1/GluN2A receptors", "conditions": "ref Paoletti et al., 1997; cited from earlier work"}, "[28]": {"test_system": "GluN1/GluN2B", "conditions": "ref Paoletti et al., 1997; cited from earlier work"}, "[29]": {"conditions": "combined potentiation/inhibition Hill equations"}}, "note": "Where “and” joins values, the source holds several entries; their conditions need not be identical. Equal values may be shown once. Read-outs that look alike come from different tables or passages of the source.", "data": [{"smiles": "Cc1cn(C[C@H](N)C(=O)O)c(=O)n(Cc2ccsc2C(=O)O)c1=O", "note": "[UBP310]", "values": [{"measurement": "inhibition of glutamate-activated currents", "setting": "[1]", "value": 55, "unit": "%"}]}, {"smiles": "[Cl-].[Cl-].[Zn+2]", "note": "[zinc, ZnCl2]", "values": [{"measurement": "current amplitude with zinc, % of control amplitude", "setting": "[2]; 100 μM zinc preapplied, 10 mM glutamate, 100 ms, whole-cell, n = 17", "value": "193% ± 38%"}, {"measurement": "effect of zinc on GluK3 currents", "setting": "[2]; pH 6.8", "value": "inhibited"}, {"measurement": "effect of zinc on GluK3 currents", "setting": "[2]; pH 8.3", "value": "potentiated"}, {"measurement": "zinc concentrations that clearly inhibit currents", "setting": "[2]; WT GluK3 receptors", "value": "above 300 μM"}, {"measurement": "maximal potentiation of GluK3 currents by zinc", "setting": "[2]; [29]", "value": "475% ± 47%"}, {"measurement": "nH of zinc potentiation of GluK3 currents", "setting": "[2]; [29]", "value": "1.82 ± 0.95"}, {"measurement": "zinc concentrations that potentiate glutamate currents", "setting": "[2]; homomeric and heteromeric KARs containing GluK3", "value": "10 to 100", "unit": "µM"}, {"measurement": "effect of zinc on GluK3-mediated currents", "setting": "[2]; simultaneous application of zinc and glutamate, data not shown", "value": "does not potentiate"}, {"measurement": "Hill coefficient (nH) of zinc inhibition of GluK2 currents", "setting": "[3]", "value": "1.1 and 1.1 ± 0.1"}, {"measurement": "UBP310-resistant current with zinc, % of control", "setting": "[4]; 100 μM zinc, 10 mM glutamate, 1 μM UBP310, n = 18", "value": "157% ± 7%"}, {"measurement": "maximal potentiation by zinc, % of control", "setting": "[4]; 10 mM glutamate, Hill fit", "value": 286, "unit": "%"}, {"measurement": "nH of zinc potentiation of GluK2/GluK3 currents", "setting": "[4]; 10 mM glutamate, Hill fit", "value": "0.6 and 0.6 ± 0.4"}, {"measurement": "inhibition of GluK2/GluK3 currents by high zinc", "setting": "[4]; zinc concentrations up to 1 mM", "value": "no inhibition"}, {"measurement": "τdes (current decay) with zinc", "setting": "[5]; 100 μM zinc, 10 mM glutamate, 100 ms, control 5.0 ± 0.2 ms, n = 8", "value": "9.8 ± 0.4", "unit": "ms"}, {"measurement": "time for half-recovery from desensitization with zinc", "setting": "[5]; 100 μM zinc, absence of zinc 902 ± 1.1 ms, n = 5", "value": "460 ± 1.2", "unit": "ms"}, {"measurement": "deactivation kinetics with zinc", "setting": "[5]; 1 ms pulses of 10 mM glutamate, control 1.5 ± 0.05 ms, n = 4", "value": "2.3 ± 0.1", "unit": "ms"}, {"measurement": "current amplitude with zinc, % of control amplitude", "setting": "[5]; 1 ms pulses of 10 mM glutamate, n = 4", "value": "191% ± 22%"}, {"measurement": "τdes (current decay) with zinc", "setting": "[6]", "value": "3.7 ± 0.1", "unit": "ms"}, {"measurement": "effect of zinc on desensitization rate", "setting": "[7]", "value": "no change"}, {"measurement": "effect of zinc on glutamate currents", "setting": "[7]; 10 mM glutamate, 100 ms", "value": "inhibited rather than potentiated"}, {"measurement": "effect of zinc on glutamate currents", "setting": "[8]", "value": "inhibited"}, {"measurement": "current amplitude with zinc, % of control amplitude", "setting": "[9]", "value": "175% ± 9%"}, {"measurement": "current with zinc (inhibited), %", "setting": "[10]", "value": "40% ± 8%"}, {"measurement": "current with zinc (potentiation), %", "setting": "[11]", "value": "186% ± 13%"}, {"measurement": "current with zinc (inhibition), %", "setting": "[12]", "value": "44% ± 11%"}, {"measurement": "current with zinc (inhibited), %", "setting": "[13]", "value": "54% ± 6%"}, {"measurement": "current with zinc (facilitated), %", "setting": "[14]", "value": "197% ± 9%"}, {"measurement": "current amplitude with zinc, % of control amplitude", "setting": "[15]", "value": "177% ± 7%"}, {"measurement": "current with zinc (inhibited), %", "setting": "[16]", "value": "32% ± 9%"}, {"measurement": "peak amplitude with zinc, %", "setting": "[17]", "value": "45% ± 6%"}, {"measurement": "effect of zinc on glutamate currents", "setting": "[18]", "value": "still potentiated"}, {"measurement": "effect of zinc on glutamate currents", "setting": "[19]", "value": "still potentiated"}, {"measurement": "effect of zinc on glutamate currents", "setting": "[20]", "value": "inhibited"}, {"measurement": "current amplitude with zinc, % of control amplitude", "setting": "[21]", "value": "33% ± 2%"}, {"measurement": "effect of zinc on glutamate currents", "setting": "[22]", "value": "retained zinc potentiation"}, {"measurement": "effect of zinc on glutamate currents", "setting": "[23]", "value": "potentiation"}, {"measurement": "effect of zinc on glutamate currents", "setting": "[24]", "value": "did not potentiate"}, {"measurement": "IC50", "setting": "[25]", "value": "1 to 2", "unit": "µM"}, {"measurement": "IC50", "setting": "[26]", "value": "~70", "unit": "µM"}, {"measurement": "affinity of zinc inhibition of NMDAR function", "setting": "[27]", "value": "low nanomolar"}, {"measurement": "affinity of zinc inhibition of NMDAR function", "setting": "[28]", "value": "low micromolar"}]}]}
